Series [1] deals with Puccinia recondita f. Sp. tritici. The series can be described thus: Puccinia recondita f. sp. tritici / wheat / leaf disc preventative (brown rust). It counts as in vivo. The note with it: foliar, 200 ppm in the applied formulation, compared to untreated control, read-out: disease control. On the procedure: Leaf disks or leaf segments of various plant species are cut from plants grown in a greenhouse. The cut leaf disks or segments are placed in multiwell plates (24-well format) onto water agar. The leaf disks are sprayed with a test solution before (preventative) or after (curative) inoculation. Compounds to be tested are prepared as DMSO solutions (max. 10 mg/ml) which are diluted to the appropriate concentration with 0.025% Tween20 just before spraying. The inoculated leaf disks or segments are incubated under defined conditions (temperature, relative humidity, light, etc.) according to the respective test system. A single evaluation of disease level is carried out 3 to 14 days after inoculation, depending on the pathosystem. Percent disease control relative to the untreated check leaf disks or segments is then calculated. Wheat leaf segments cv. Kanzler were placed on agar in multiwell plates (24-well format) and sprayed with the formulated test compound diluted in water. The leaf disks were inoculated with a spore suspension of the fungus 1 day after application. The inoculated leaf segments were incubated at 19° C. and 75% relative humidity (rh) under a light regime of 12 hours light/12 hours darkness in a climate cabinet and the activity of a compound was assessed as percent disease control compared to untreated when an appropriate level of disease damage appears in untreated check leaf segments (7 to 9 days after application). The following compounds at 200 ppm in the applied formulation give at least 80% disease control in this test when compared to untreated control leaf disks under the same conditions, which show extensive disease development.

For series [2] the test system is unchanged. The series can be described thus: Puccinia recondita f. sp. tritici / wheat / leaf disc curative (brown rust). The series is classed as in vivo. The settings on record: foliar, 200 ppm in the applied formulation, compared to untreated control, read-out: disease control. As to the method: (§1) Leaf disks or leaf segments of various plant species are cut from plants grown in a greenhouse. The cut leaf disks or segments are placed in multiwell plates (24-well format) onto water agar. The leaf disks are sprayed with a test solution before (preventative) or after (curative) inoculation. Compounds to be tested are prepared as DMSO solutions (max. 10 mg/ml) which are diluted to the appropriate concentration with 0.025% Tween20 just before spraying. The inoculated leaf disks or segments are incubated under defined conditions (temperature, relative humidity, light, etc.) according to the respective test system. A single evaluation of disease level is carried out 3 to 14 days after inoculation, depending on the pathosystem. Percent disease control relative to the untreated check leaf disks or segments is then calculated.
Wheat leaf segments cv. Kanzler are placed on agar in multiwell plates (24-well format). The leaf segments are then inoculated with a spore suspension of the fungus. Plates were stored in darkness at 19° C. and 75% relative humidity. The formulated test compound diluted in water was applied 1 day after inoculation. The leaf segments were incubated at 19° C. and 75% relative humidity under a light regime of 12 hours light/12 hours darkness in a climate cabinet and the activity of a compound was assessed as percent disease control compared to untreated when an appropriate level of disease damage appears in untreated check leaf segments (6 to 8 days after application).
(§2) The following compounds at 200 ppm in the applied formulation give at least 80% disease control in this test when compared to untreated control leaf disks under the same conditions, which show extensive disease development.

The test system of series [3] is Phakopsora pachyrhizi. As to the kind of experiment: Phakopsora pachyrhizi / soybean / leaf disc preventative (Asian soybean rust). It counts as in vivo. The settings on record: foliar, 200 ppm in the applied formulation, compared to untreated control, read-out: disease control. As to the method:
as §1
Soybean leaf disks are placed on water agar in multiwell plates (24-well format) and sprayed with the formulated test compound diluted in water. One day after application leaf discs are inoculated by spraying a spore suspension on the lower leaf surface. After an incubation period in a climate cabinet of 24-36 hours in darkness at 20° C. and 75% rh leaf disc are kept at 20° C. with 12 h light/day and 75% rh. The activity of a compound is assessed as percent disease control compared to untreated when an appropriate level of disease damage appears in untreated check leaf disks (12 to 14 days after application).
as §2

The test system of series [4] is Glomerella lacenarium (Colletotrichum lacenarium). The series can be described thus: Glomerella lacenarium (Colletotrichum lacenarium) liquid culture / cucumber / preventative (anthracnose). The series is classed as cell-based. The note with it: 20 ppm in the applied formulation, growth inhibition measured photometrically, compared to untreated control, read-out: disease control. As to the method:
Mycelia fragments or conidia suspensions of a fungus prepared either freshly from liquid cultures of the fungus or from cryogenic storage, are directly mixed into nutrient broth. DMSO solutions of the test compound (max. 10 mg/ml) are diluted with 0.025% Tween20 by a factor of 50 and 10 μl of this solution is pipetted into a microtiter plate (96-well format). The nutrient broth containing the fungal spores/mycelia fragments is then added to give an end concentration of the tested compound. The test plates are incubated in the dark at 24° C. and 96% relative humidity. The inhibition of fungal growth is determined photometrically after 2 to 7 days, depending on the pathosystem, and percent antifungal activity relative to the untreated check is calculated.
Conidia of the fungus from cryogenic storage are directly mixed into nutrient broth (PDB—potato dextrose broth). After placing a (DMSO) solution of test compound into a microtiter plate (96-well format), the nutrient broth containing the fungal spores is added. The test plates are incubated at 24° C. and the inhibition of growth is measured photometrically 3 to 4 days after application.
The following compounds at 20 ppm in the applied formulation give at least 80% disease control in this test when compared to untreated control under the same conditions, which show extensive disease development.

Each structure is given as a SMILES string. A value given as a limit tells only on which side of the number the result lay.

`Cc1cc(C(=O)c2ccc(-c3noc(C(F)(F)F)n3)cc2)on1` [Compound 1.13, (3-methylisoxazol-5-yl)-[4-[5-(trifluoromethyl)-1,2,4-oxadiazol-3-yl]phenyl]methanone]: the pest or weed control at 200 ppm in series [1], in series [2] and in series [3] was ≥ 80% each time. In series [4], the inhibition of growth at 20 ppm is ≥ 80%.

Take `CCc1cc(C(=O)c2ccc(-c3noc(C(F)(F)F)n3)cc2)on1` [Compound 1.14, (3-ethylisoxazol-5-yl)-[4-[5-(trifluoromethyl)-1,2,4-oxadiazol-3-yl]phenyl]methanone]: the pest or weed control at 200 ppm in series [1], in series [2] and in series [3] was ≥ 80% each time. Besides, in series [4], the inhibition of growth at 20 ppm is ≥ 80%.

As usually defined, the melting point is the temperature of the solid-liquid transition. For `O=C(c1ccc(-c2noc(C(F)(F)F)n2)cc1)c1ccccn1` [Compound 1.16, 2-pyridyl-[4-[5-(trifluoromethyl)-1,2,4-oxadiazol-3-yl]phenyl]methanone], the melting point is 66 to 70 °C. In addition, in series [1], the pest or weed control at 200 ppm is ≥ 80%. In addition, the pest or weed control at 200 ppm in series [2] was ≥ 80%. Also, the pest or weed control at 200 ppm in series [3] was ≥ 80%. Also, in series [4], the inhibition of growth at 20 ppm was ≥ 80%.

On to `Cc1cccc(C(=O)c2ccc(-c3noc(C(F)(F)F)n3)cc2)n1` [Compound 1.18, (6-methyl-2-pyridyl)-[4-[5-(trifluoromethyl)-1,2,4-oxadiazol-3-yl]phenyl]methanone], for which the pest or weed control at 200 ppm in series [1], in series [2] and in series [3] was ≥ 80% in each case. For the same compound, in series [4], the inhibition of growth at 20 ppm was ≥ 80%.

On to `N#Cc1ccc(C(=O)c2ccc(-c3noc(C(F)(F)F)n3)nc2)cc1` [Compound 1.30, 4-[6-[5-(trifluoromethyl)-1,2,4-oxadiazol-3-yl]pyridine-3-carbonyl]benzonitrile], for which the melting point is 142 to 146 °C. The pest or weed control at 200 ppm in series [1] is ≥ 80%. Further, in series [2], the pest or weed control at 200 ppm is ≥ 80%. For the same compound, the inhibition of growth at 20 ppm in series [4] was ≥ 80%.

With `Cc1nc(C(=O)c2ccc(-c3noc(C(F)(F)F)n3)cc2)cs1` [Compound 1.33, (2-methylthiazol-4-yl)-[4-[5-(trifluoromethyl)-1,2,4-oxadiazol-3-yl]phenyl]methanone], the pest or weed control at 200 ppm in series [1] and in series [2] was ≥ 80% in each case. The inhibition of growth at 20 ppm in series [4] was ≥ 80%.

The compound `Cc1ncc(C(=O)c2ccc(-c3noc(C(F)(F)F)n3)cc2)s1` [Compound 1.34, (2-methylthiazol-5-yl)-[4-[5-(trifluoromethyl)-1,2,4-oxadiazol-3-yl]phenyl]methanone] had a melting point of 116 to 120 °C. In addition, the pest or weed control at 200 ppm in series [2] is ≥ 80%. The inhibition of growth at 20 ppm in series [4] is ≥ 80%.

For `O=C(c1ccc(-c2noc(C(F)(F)F)n2)cc1)c1ccno1` [Compound 1.35, isoxazol-5-yl-[4-[5-(trifluoromethyl)-1,2,4-oxadiazol-3-yl]phenyl]methanone], the melting point was in the range of 112 to 118 °C. Moreover, the pest or weed control at 200 ppm in series [1] is ≥ 80%. Besides, the pest or weed control at 200 ppm in series [2] was ≥ 80%. Besides, the inhibition of growth at 20 ppm in series [4] was ≥ 80%.

In the case of `Cc1ccc(C(=O)c2ccc(-c3noc(C(F)(F)F)n3)cc2)nc1` [Compound 1.37, (5-methyl-2-pyridyl)-[4-[5-(trifluoromethyl)-1,2,4-oxadiazol-3-yl]phenyl]methanone], the pest or weed control at 200 ppm in series [1] and in series [2] was ≥ 80% throughout. Also, the inhibition of growth at 20 ppm in series [4] was ≥ 80%.

On to `OC(c1ccc(-c2noc(C(F)(F)F)n2)cc1)c1ccccn1` (stereo not drawn) [Compound 2.12, 2-pyridyl-[4-[5-(trifluoromethyl)-1,2,4-oxadiazol-3-yl]phenyl]methanol], for which the pest or weed control at 200 ppm in series [1], in series [2] and in series [3] was ≥ 80% in each case. Besides, the inhibition of growth at 20 ppm in series [4] was ≥ 80%.

As for `Cc1cccc(C(O)c2ccc(-c3noc(C(F)(F)F)n3)cc2)n1` (stereo not drawn) [Compound 2.13, (6-methyl-2-pyridyl)-[4-[5-(trifluoromethyl)-1,2,4-oxadiazol-3-yl]phenyl]methanol], the pest or weed control at 200 ppm in series [1], in series [2] and in series [3] was ≥ 80% each time. Further, the inhibition of growth at 20 ppm in series [4] was ≥ 80%.

Consider `OC(c1ccc(-c2noc(C(F)(F)F)n2)cc1)c1cscn1` (stereo not drawn) [Compound 2.18, thiazol-4-yl-[4-[5-(trifluoromethyl)-1,2,4-oxadiazol-3-yl]phenyl]methanol], for which the melting point was in the range of 56 to 60 °C. Besides, the pest or weed control at 200 ppm in series [1] is ≥ 80%. Also, the pest or weed control at 200 ppm in series [2] was ≥ 80%. Also, the inhibition of growth at 20 ppm in series [4] is ≥ 80%.

`Cc1nc(C(O)c2ccc(-c3noc(C(F)(F)F)n3)cc2)cs1` (stereo not drawn) [Compound 2.20, (2-methylthiazol-4-yl)-[4-[5-(trifluoromethyl)-1,2,4-oxadiazol-3-yl]phenyl]methanol] showed a melting point of 95 to 99 °C. In series [1], the pest or weed control at 200 ppm is ≥ 80%. In series [2], the pest or weed control at 200 ppm is ≥ 80%.

Turning to `Cc1ccc(C(O)c2ccc(-c3noc(C(F)(F)F)n3)cc2)nc1` (stereo not drawn) [Compound 2.21, (5-methyl-2-pyridyl)-[4-[5-(trifluoromethyl)-1,2,4-oxadiazol-3-yl]phenyl]methanol], the pest or weed control at 200 ppm in series [1] and in series [2] was ≥ 80% each time.

Turning to `Cc1ncc(C(O)c2ccc(-c3noc(C(F)(F)F)n3)cc2)s1` (stereo not drawn) [Compound 2.22, (2-methylthiazol-5-yl)-[4-[5-(trifluoromethyl)-1,2,4-oxadiazol-3-yl]phenyl]methanol], the melting point fell in the range of 104 to 108 °C. Moreover, the pest or weed control at 200 ppm in series [1] was ≥ 80%. In addition, the pest or weed control at 200 ppm in series [2] is ≥ 80%.

Consider `C=C(C)CC(O)(c1ccc(-c2noc(C(F)(F)F)n2)cc1)c1cc(C)no1` (stereo not drawn) [Compound 2.24, 3-methyl-1-(3-methylisoxazol-5-yl)-1-[4-[5-(trifluoromethyl)-1,2,4-oxadiazol-3-yl]phenyl]but-3-en-1-ol], for which the pest or weed control at 200 ppm in series [1] and in series [2] was ≥ 80% throughout.

For `Cc1cc(C(C)(O)c2ccc(-c3noc(C(F)(F)F)n3)cc2)on1` (stereo not drawn) [Compound 2.26, 1-(3-methylisoxazol-5-yl)-1-[4-[5-(trifluoromethyl)-1,2,4-oxadiazol-3-yl]phenyl]ethanol], the pest or weed control at 200 ppm in series [1] and in series [2] was ≥ 80% in each case.

With `CCC(O)(c1ccc(-c2noc(C(F)(F)F)n2)cc1)c1cc(C)no1` (stereo not drawn) [Compound 2.27, 1-(3-methylisoxazol-5-yl)-1-[4-[5-(trifluoromethyl)-1,2,4-oxadiazol-3-yl]phenyl]propan-1-ol], the pest or weed control at 200 ppm in series [1] and in series [2] was ≥ 80% throughout.

For the origin of these results see US11026427B2, “Microbiocidal oxadiazole derivatives” (SYNGENTA PARTICIPATIONS AG, priority 2016, dated 2021).
